Data: PubChem BioAssay (NCI)
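Compound exposure: 48 hours, 5 concentrations, 96-well plates. GI50 marks 50% less growth. TGI marks complete inhibition of growth.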

Legend:
Assay in all cases: growth of human tumour cells (NCI), 48 h
[1] = test system: 786-0 renal
[2] = test system: A498 renal
[3] = test system: A549 NSCLC
[4] = test system: ACHN renal
[5] = test system: BT-549 breast
[6] = test system: CAKI-1 renal
[7] = test system: CCRF-CEM leukemia
[8] = test system: COLO 205 colon
[9] = test system: DU-145 prostate
[10] = test system: EKVX NSCLC
[11] = test system: HCC-2998 colon
[12] = test system: HCT-116 colon
[13] = test system: HCT-15 colon
[14] = test system: HL-60(TB) leukemia
[15] = test system: HOP-62 NSCLC
[16] = test system: HOP-92 NSCLC
[17] = test system: HS 578T breast
[18] = test system: HT29 colon
[19] = test system: IGROV1 ovarian
[20] = test system: K-562 leukemia
[21] = test system: KM12 colon
[22] = test system: LOX IMVI melanoma
[23] = test system: M14 melanoma
[24] = test system: MALME-3M melanoma
[25] = test system: MCF7 breast
[26] = test system: MDA-MB-231 breast
[27] = test system: MDA-MB-435
[28] = test system: MOLT-4 leukemia
[29] = test system: NCI-H226 lung
[30] = test system: NCI-H23 lung
[31] = test system: NCI-H460 lung
[32] = test system: NCI-H522 lung
[33] = test system: NCI/ADR-RES ovarian
[34] = test system: OVCAR-3 ovarian
[35] = test system: OVCAR-4 ovarian
[36] = test system: OVCAR-5 ovarian
[37] = test system: OVCAR-8 ovarian
[38] = test system: PC-3 prostate
[39] = test system: RPMI-8226 leukemia
[40] = test system: RXF 393 renal
[41] = test system: SF-268 CNS
[42] = test system: SF-295 CNS
[43] = test system: SF-539 CNS
[44] = test system: SK-MEL-2 melanoma
[45] = test system: SK-MEL-28 melanoma
[46] = test system: SK-MEL-5 melanoma
[47] = test system: SK-OV-3 ovarian
[48] = test system: SN12C renal
[49] = test system: SNB-19 CNS
[50] = test system: SNB-75 CNS
[51] = test system: SR leukemia
[52] = test system: SW-620 colon
[53] = test system: T-47D breast
[54] = test system: TK-10 renal
[55] = test system: U251 CNS
[56] = test system: UACC-257 melanoma
[57] = test system: UACC-62 melanoma
[58] = test system: UO-31 renal

## COc1ccc(NC(=O)c2sc3nc(C)c(C(O)c4ccc(OC)cc4)cc3c2N)cc1 (stereo unspecified)
[1]
  GI50: 3.35 µM
  TGI: > 50 µM
[2]
  GI50: 0.156 µM
  TGI: 39.1 µM
[3]
  GI50: 0.258 µM
  TGI: > 50 µM
[4]
  GI50: 2.51 µM
  TGI: > 50 µM
[5]
  GI50: 1.81 µM
  TGI: > 50 µM
[6]
  GI50: 0.803 µM
  TGI: > 50 µM
[7]
  GI50: 1.44 µM
  TGI: > 50 µM
[8]
  GI50: 1.57 µM
  TGI: 31.6 µM
[9]
  GI50: 1.65 µM
  TGI: > 50 µM
[10]
  GI50: 3.13 µM
  TGI: > 50 µM
[11]
  GI50: 0.804 µM
  TGI: 2.89 µM
[12]
  GI50: 0.983 µM
  TGI: > 50 µM
[13]
  GI50: 0.414 µM
  TGI: > 50 µM
[14]
  GI50: 1.23 µM
  TGI: > 50 µM
[15]
  GI50: 2.03 µM
  TGI: > 50 µM
[16]
  GI50: 5.62 µM
  TGI: > 50 µM
[17]
  GI50: 0.821 µM
  TGI: 4.09 µM
[18]
  GI50: 1.45 µM
  TGI: 19.4 µM
[19]
  GI50: 1.85 µM
  TGI: > 50 µM
[20]
  GI50: 0.509 µM
  TGI: > 50 µM
[21]
  GI50: 0.76 µM
  TGI: > 50 µM
[22]
  GI50: 1.4 µM
  TGI: > 50 µM
[23]
  GI50: 1 µM
  TGI: > 50 µM
[24]
  GI50: 2.65 µM
  TGI: > 50 µM
[25]
  GI50: 0.196 µM
  TGI: > 50 µM
[26]
  GI50: 2.06 µM
  TGI: > 50 µM
[27]
  GI50: 0.121 µM
  TGI: 0.387 µM
[28]
  GI50: 2.17 µM
  TGI: > 50 µM
[29]
  GI50: 3.54 µM
  TGI: > 50 µM
[30]
  GI50: 2.06 µM
  TGI: > 50 µM
[31]
  GI50: 0.17 µM
  TGI: 9.97 µM
[32]
  GI50: 1.27 µM
  TGI: > 50 µM
[33]
  GI50: 1.28 µM
  TGI: 4.41 µM
[34]
  GI50: 0.365 µM
  TGI: 5.31 µM
[35]
  GI50: 5.12 µM
  TGI: > 50 µM
[36]
  GI50: 1.87 µM
  TGI: > 50 µM
[37]
  GI50: 1.79 µM
  TGI: > 50 µM
[38]
  GI50: 1.89 µM
  TGI: > 50 µM
[39]
  GI50: 1.62 µM
  TGI: > 50 µM
[40]
  GI50: 0.411 µM
  TGI: 2.99 µM
[41]
  GI50: 2.28 µM
  TGI: > 50 µM
[42]
  GI50: 0.299 µM
  TGI: 9.79 µM
[43]
  GI50: 1.02 µM
  TGI: 4.44 µM
[44]
  GI50: 1.74 µM
  TGI: > 50 µM
[45]
  GI50: 6.22 µM
  TGI: > 50 µM
[46]
  GI50: 0.569 µM
  TGI: 6.82 µM
[47]
  GI50: 1.89 µM
  TGI: > 50 µM
[48]
  GI50: 2.25 µM
  TGI: > 50 µM
[49]
  GI50: 1.84 µM
  TGI: > 50 µM
[50]
  GI50: 0.815 µM
  TGI: 17.3 µM
[51]
  GI50: 0.256 µM
  TGI: > 50 µM
[52]
  GI50: 1.26 µM
  TGI: > 50 µM
[53]
  GI50: 10.5 µM
  TGI: > 50 µM
[54]
  GI50: 17.1 µM
  TGI: > 50 µM
[55]
  GI50: 1.43 µM
  TGI: > 50 µM
[56]
  GI50: 11.1 µM
  TGI: > 50 µM
[57]
  GI50: 0.621 µM
  TGI: > 50 µM
[58]
  GI50: 2.85 µM
  TGI: > 50 µM
